Series [1] can be described thus: Inhibition of HCV NS4A-tethered single chain NS3 serine protease by spectrophotometric assay. Also noted: species or system Hepacivirus hominis.
A further series deals with Hepatitis C virus. Kind of series: Antiviral activity against HCV assessed as inhibition of viral RNA replication. The series is classed as functional, Hepacivirus hominis.
Series [2] in a line: Selectivity for HCV NS4A-tethered single chain NS3 serine protease over human neutrophil elastase.
The nature of series [3]: AUC in rat at 10 mg/kg, po. It counts as ADME, organism-based. Details: dose 10 mg/kg, route oral. The settings on record: plasma.

The compound `C=CCNC(=O)C(=O)C(CCC)NC(=O)[C@@H]1[C@@H]2[C@H](CN1C(=O)[C@@H](NC(=O)N[C@@H](CN1CCCCC1=O)C(C)(C)C)C(C)(C)C)C2(C)C` (stereo not given in full) returned a Ki in series [1] of 14 nM. For the same compound, the EC90 with Hepatitis C virus amounted to 350 nM. For the same compound, the Ratio in series [2] is given as 320.
Regarding `C=CCNC(=O)C(=O)C(CCC)NC(=O)[C@@H]1[C@@H]2[C@H](CN1C(=O)[C@@H](NC(=O)N[C@@H](CN1CCCNC1=O)C(C)(C)C)C(C)(C)C)C2(C)C` (stereo not given in full), the affinity in series [1] corresponds to a Ki of 4.9 nM. Moreover, the EC90 with Hepatitis C virus was 180 nM. In addition, the Ratio in series [2] is given as 360. The AUC in series [3] came out at 0.07 µM·h.
For the compound `C=CCNC(=O)C(=O)C(CCC)NC(=O)[C@@H]1[C@@H]2[C@H](CN1C(=O)[C@@H](NC(=O)N[C@@H](CN1CCC(C)(C)CC1=O)C(C)(C)C)C(C)(C)C)C2(C)C` (stereo not given in full), the Ki in series [1] amounted to 17 nM. Moreover, the EC90 in the series with Hepatitis C virus stood at 80 nM. Moreover, in series [2], the Ratio is on record as 310. Further, the AUC in series [3] came to 2.3 µM·h.
In the case of `C=CCNC(=O)C(=O)C(CCC)NC(=O)[C@@H]1[C@@H]2[C@H](CN1C(=O)[C@@H](NC(=O)N[C@@H](CN1CCCC(C)(C)C1=O)C(C)(C)C)C(C)(C)C)C2(C)C` (stereo not given in full), in series [1], the Ki turned out to be 89 nM. The Ratio in series [2] is listed as 90.
Consider `C=CCNC(=O)C(=O)C(CCC)NC(=O)[C@@H]1[C@@H]2[C@H](CN1C(=O)[C@@H](NC(=O)N[C@@H](CN1CCCC1=O)C(C)(C)C)C(C)(C)C)C2(C)C` (stereo not given in full), for which the Ki in series [1] was 37 nM. Moreover, in the series with Hepatitis C virus, the EC90 amounted to 700 nM. Moreover, in series [2], the Ratio is 60.
As for `C=CCNC(=O)C(=O)C(CCC)NC(=O)[C@@H]1[C@@H]2[C@H](CN1C(=O)[C@@H](NC(=O)N[C@@H](CN1CC3CCC(C3)C1=O)C(C)(C)C)C(C)(C)C)C2(C)C` (stereo not given in full), affinity in series [1] was put at a Ki of 8 nM. The EC90 in the series with Hepatitis C virus was 60 nM. For the same compound, the Ratio in series [2] is 613. In series [3], this compound returned an AUC of 0.53 µM·h.
In turn, `C=CCNC(=O)C(=O)C(CCC)NC(=O)[C@@H]1[C@@H]2[C@H](CN1C(=O)[C@@H](NC(=O)N[C@@H](CN1Cc3ccccc3C1=O)C(C)(C)C)C(C)(C)C)C2(C)C` (stereo not given in full) gave a Ki in series [1] of 40 nM. The Ratio in series [2] was 1500.
Compound `C=CCNC(=O)C(=O)C(CCC)NC(=O)[C@@H]1[C@@H]2[C@H](CN1C(=O)[C@@H](NC(=O)N[C@@H](CN1CCCOC1=O)C(C)(C)C)C(C)(C)C)C2(C)C` (stereo not given in full) displayed a Ki in series [1] of 10 nM. Moreover, the EC90 with Hepatitis C virus was determined as 350 nM. Besides, the Ratio in series [2] is on record as 100.
In series [1], `C=CCNC(=O)C(=O)C(CCC)NC(=O)[C@@H]1[C@@H]2[C@H](CN1C(=O)[C@@H](NC(=O)N[C@@H](CN(C)C(=O)C1CC1)C(C)(C)C)C(C)(C)C)C2(C)C` (stereo not given in full) displayed a Ki of 91 nM. In addition, the Ratio in series [2] was found to be 280.
In turn, `C=CCNC(=O)C(=O)C(CCC)NC(=O)[C@@H]1[C@@H]2[C@H](CN1C(=O)[C@@H](NC(=O)N[C@@H](CN(C)C(=O)C(C)(C)C)C(C)(C)C)C(C)(C)C)C2(C)C` (stereo not given in full) displayed a Ki in series [1] of 23000 nM.
For `C=CCNC(=O)C(=O)C(CCC)NC(=O)[C@@H]1[C@@H]2[C@H](CN1C(=O)[C@@H](NC(=O)N[C@@H](CN(C)C(C)=O)C(C)(C)C)C(C)(C)C)C2(C)C` (stereo not given in full), in series [1], the affinity, expressed as Ki, was 37 nM. For the same compound, in the series on Hepatitis C virus, the EC90 amounted to 550 nM. The Ratio in series [2] amounted to 150.
In series [1], `C=CCNC(=O)C(=O)C(CCC)NC(=O)[C@@H]1[C@@H]2[C@H](CN1C(=O)[C@@H](NC(=O)N[C@@H](CN(C)C(=O)C(F)(F)F)C(C)(C)C)C(C)(C)C)C2(C)C` (stereo not given in full) yielded a Ki of 42 nM. The Ratio in series [2] is recorded as 75.
For the compound `C=CCNC(=O)C(=O)C(CCC)NC(=O)[C@@H]1[C@@H]2[C@H](CN1C(=O)[C@@H](NC(=O)N[C@@H](CN1Cc3ccccc3CC1=O)C(C)(C)C)C(C)(C)C)C2(C)C` (stereo not given in full), the Ki in series [1] amounted to 19 nM. In the series on Hepatitis C virus, the concentration for an effect of 90% (EC90) is 200 nM. Further, the Ratio in series [2] is given as 250.
Take `C=CCNC(=O)C(=O)C(CCC)NC(=O)[C@@H]1[C@@H]2[C@H](CN1C(=O)[C@@H](NC(=O)N[C@@H](CN1CCC(C)(C)CC1=O)C(C)(C)C)C1CCCCC1)C2(C)C` (stereo not given in full): in series [1], the Ki is 1.9 nM. Also, the EC90 in the series on Hepatitis C virus amounted to 45 nM. In series [2], the Ratio is given as 60. In addition, in series [3], the AUC was 2.09 µM·h.
As for `C=CCNC(=O)C(=O)C(CC1CC1)NC(=O)[C@@H]1[C@@H]2[C@H](CN1C(=O)[C@@H](NC(=O)N[C@@H](CN1CCC(C)(C)CC1=O)C(C)(C)C)C(C)(C)C)C2(C)C` (stereo not given in full), affinity in series [1] was put at a Ki of 15 nM. The EC90 with Hepatitis C virus stood at 70 nM. In addition, the Ratio in series [2] came to 870. In addition, in series [3], the AUC is 3.52 µM·h.
Consider `C=CCNC(=O)C(=O)C(CC1CCC1)NC(=O)[C@@H]1[C@@H]2[C@H](CN1C(=O)[C@@H](NC(=O)N[C@@H](CN1CCC(C)(C)CC1=O)C(C)(C)C)C(C)(C)C)C2(C)C` (stereo not given in full), for which, in series [1], the affinity corresponds to a Ki of 28 nM. Besides, the EC90 in the series on Hepatitis C virus was determined as 70 nM. For the same compound, the Ratio in series [2] amounted to 1900. In addition, the AUC in series [3] came out at 1 µM·h.
In series [1], `C#CCCC(NC(=O)[C@@H]1[C@@H]2[C@H](CN1C(=O)[C@@H](NC(=O)N[C@@H](CN1CCC(C)(C)CC1=O)C(C)(C)C)C(C)(C)C)C2(C)C)C(=O)C(=O)NCC=C` (stereo not given in full) returned a Ki of 5 nM. The EC90 in the series on Hepatitis C virus stood at 60 nM. The Ratio in series [2] is 210. In addition, the AUC in series [3] amounted to 0.49 µM·h.
Consider `C=CCNC(=O)C(=O)C(CCC)NC(=O)[C@@H]1[C@@H]2[C@H](CN1C(=O)[C@@H](NC(=O)OC(C)(C)C)C(C)(C)C)C2(C)C` (stereo not given in full), for which the affinity in series [1], expressed as Ki, was 1500 nM.
On the same count and under the same terms, then `C=CCNC(=O)C(=O)C(CCC)NC(=O)[C@@H]1[C@@H]2[C@H](CN1C(=O)[C@@H](NC(=O)N[C@@H](CN1CCCCC1)C(C)(C)C)C(C)(C)C)C2(C)C` (stereo not given in full), with 2300 nM.
In series [1], `C=CCNC(=O)C(=O)C(CCC)NC(=O)[C@@H]1[C@@H]2[C@H](CN1C(=O)[C@@H](NC(=O)N[C@@H](CN1CCCCC1=O)C(C)(C)C)C1CCCCC1)C2(C)C` (stereo not given in full) displayed a Ki of 1.8 nM. Besides, in the series with Hepatitis C virus, the EC90 worked out at 110 nM. Further, the Ratio in series [2] is 7. In series [3], this compound came in with an AUC of 0.7 µM·h.
`C=CCNC(=O)C(=O)C(CCC)NC(=O)[C@@H]1[C@@H]2[C@H](CN1C(=O)[C@@H](NC(=O)N[C@@H](CN1CCCCC1=O)C(C)(C)C)C1Cc3ccccc3C1)C2(C)C` (stereo not given in full): affinity in series [1] was put at a Ki of 9 nM. For the same compound, the EC90 in the series on Hepatitis C virus was found to be 80 nM. For the same compound, in series [2], the Ratio is listed as 18. The compound further had an AUC in series [3] of 0.68 µM·h.
For `C=CCNC(=O)C(=O)C(CCC)NC(=O)[C@@H]1[C@@H]2[C@H](CN1C(=O)[C@@H](NC(=O)N[C@@H](CN1CCC(C)(C)CC1=O)C(C)(C)C)C1Cc3ccccc3C1)C2(C)C` (stereo not given in full), the affinity in series [1], expressed as Ki, was 7 nM. In addition, the EC90 with Hepatitis C virus stood at 80 nM. Also, the Ratio in series [2] stood at 110.
On the same counts, the results for `C=CCNC(=O)C(=O)C(CCCC)NC(=O)[C@@H]1[C@@H]2[C@H](CN1C(=O)[C@@H](NC(=O)N[C@@H](CN1CCC(C)(C)CC1=O)C(C)(C)C)C(C)(C)C)C2(C)C` (stereo not given in full) are 19 nM, 80 nM and 850.
The compound `CC(C)(C)NC(=O)N[C@H](C(=O)N1C[C@H]2[C@@H]([C@H]1C(=O)NC(CC1CCC1)C(=O)C(N)=O)C2(C)C)C(C)(C)C` (stereo not given in full) [BOCEPREVIR] displayed a Ki in series [1] of 14 nM. In addition, the EC90 in the series with Hepatitis C virus is 350 nM.

Broadly, the Ki is a measure of affinity in units of concentration, obtained from inhibition or displacement. Broadly, the EC90 is the point of the concentration-response curve where the effect stands at 90%. In general, AUC refers to the area under the concentration-time curve, a measure of exposure. The low end stands for less exposure, the high end for more exposure.

These data come from ChEMBL document CHEMBL1153212, “P4 capped amides and lactams as HCV NS3 protease inhibitors with improved potency and DMPK profile” (Bioorg Med Chem Lett, 2010).
